The values that follow come from patent US8334382B2, “Substituted biaryl piperazinyl-pyridine analogues” (Neurogen Corporation, priority 2004, dated 2012).

A value given as a limit tells only on which side of the number the result lay.

The target of assay [1] is T1, human capsaicin receptor (Homo sapiens, UniProt Q8NER1).
T1 construct: expressed in transfected cells; host or cells: HEK293, stably transfected with pBK-CMV construct
Briefly: Calcium mobilization assay, determination of antagonist activity. In kind it is cell-based. The following applies: capsaicin at EC50; cells expressing human capsaicin receptor; Example 6. A digest of the protocol:
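HEK293 cells stably expressing full-length human TRPV1, loaded with Fluo-3 AM in KRH buffer pH 7.4, preincubated with compound (final 1-5 µM) in the dark at room temperature for 0.5-6 h, then stimulated with capsaicin at its EC50. FLIPR fluorescence gave IC50 as concentration halving the capsaicin response.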

In assay [2] the target is VR. The following applies: binds to VR with no more than moderate affinity; cited from earlier work.

T1 sequence (Q8NER1 whole entry): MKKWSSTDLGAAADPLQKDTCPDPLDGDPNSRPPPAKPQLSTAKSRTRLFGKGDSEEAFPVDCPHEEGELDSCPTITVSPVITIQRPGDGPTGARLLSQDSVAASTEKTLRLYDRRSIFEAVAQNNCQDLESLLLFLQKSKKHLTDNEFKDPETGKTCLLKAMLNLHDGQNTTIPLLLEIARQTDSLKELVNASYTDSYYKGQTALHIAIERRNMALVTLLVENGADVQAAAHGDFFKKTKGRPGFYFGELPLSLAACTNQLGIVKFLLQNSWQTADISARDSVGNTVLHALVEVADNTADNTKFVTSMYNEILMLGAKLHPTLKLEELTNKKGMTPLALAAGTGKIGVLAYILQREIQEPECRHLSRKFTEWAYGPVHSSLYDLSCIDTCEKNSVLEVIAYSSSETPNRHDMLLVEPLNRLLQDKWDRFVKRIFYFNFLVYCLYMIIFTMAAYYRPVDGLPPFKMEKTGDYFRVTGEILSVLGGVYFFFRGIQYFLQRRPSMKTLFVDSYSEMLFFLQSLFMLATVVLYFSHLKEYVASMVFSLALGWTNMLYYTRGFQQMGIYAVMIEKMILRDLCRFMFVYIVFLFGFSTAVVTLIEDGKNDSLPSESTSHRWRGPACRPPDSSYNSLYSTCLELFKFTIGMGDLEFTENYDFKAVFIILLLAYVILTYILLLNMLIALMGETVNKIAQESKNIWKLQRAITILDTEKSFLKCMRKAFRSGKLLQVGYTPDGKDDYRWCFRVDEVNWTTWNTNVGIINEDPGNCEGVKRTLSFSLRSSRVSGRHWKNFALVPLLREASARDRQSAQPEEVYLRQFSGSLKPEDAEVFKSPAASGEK

One may read the IC50 as the concentration that inhibits the measured activity by half. Turning to `C[C@@H]1CN(c2ncc(OCCO)cc2Cl)CCN1c1cc(-c2ccc(F)c(Cl)c2)nc(N2CCC[C@H]2C)n1` [Example 183, 2-{[5-chloro-6-((3R)-4-{6-(3-chloro-4-fluorophenyl)-2-[(2R)-2-methylpyrrolidin-1-yl]pyrimidin-4-yl}-3-methylpiperazin-1-yl)pyridin-3-yl]oxy}ethanol], the IC50 in assay [1] is not above 1000 nM.
The same measure, in the same setting: next, `Cc1cc(OCCO)cnc1N1CCN(c2cc(-c3ccc(F)cc3)nc(N3CCC[C@H]3CO)n2)[C@H](C)C1` [Example 184, 2-{[6-((3R)-4-{6-(4-fluorophenyl)-2-[(2S)-2-(hydroxymethyl)pyrrolidin-1-yl]pyrimidin-4-yl}-3-methylpiperazin-1-yl)-5-methylpyridin-3-yl]oxy}ethanol]: not above 1000 nM; `C[C@@H]1CN(c2ncc(CCO)cc2Cl)CCN1c1cc(-c2ccc(F)c(Cl)c2)nc(N2CCC[C@H]2C)n1` [Example 185, 2-[5-chloro-6-((3R)-4-{6-(3-chloro-4-fluorophenyl)-2-[(2R)-2-methylpyrrolidin-1-yl]pyrimidin-4-yl}-3-methylpiperazin-1-yl)pyridin-3-yl]ethanol]: not above 1000 nM; `C[C@@H]1CN(c2ncc(CCN(C)C)cc2Cl)CCN1c1cc(-c2ccc(F)c(Cl)c2)nc(N2CCC[C@H]2C)n1` [Example 186, 2-[5-chloro-6-((3R)-4-{6-(3-chloro-4-fluorophenyl)-2-[(2R)-2-methylpyrrolidin-1-yl]pyrimidin-4-yl}-3-methylpiperazin-1-yl)pyridin-3-yl]-N,N-dimethylethanamine]: not above 1000 nM.
Consider `CNCCc1cnc(N2CCN(c3cc(-c4ccc(F)c(Cl)c4)nc(N4CCC[C@H]4C)n3)[C@H](C)C2)c(Cl)c1` [Example 187, 2-[5-chloro-6-((3R)-4-{6-(3-chloro-4-fluorophenyl)-2-[(2R)-2-methylpyrrolidin-1-yl]pyrimidin-4-yl}-3-methylpiperazin-1-yl)pyridin-3-yl]-N-methylethanamine], for which the IC50 in assay [1] was not above 1000 nM.
On the same count and under the same terms, for `Cc1cc(C#N)cnc1N1CCN(c2cc(-c3ccc(F)cc3)nc(N3CCC[C@H]3C)n2)[C@H](C)C1` [Example 188, 6-((3R)-4-{6-(4-fluorophenyl)-2-[(2R)-2-methyl-1-pyrrolidinyl]-4-pyrimidinyl}-3-methyl-1-piperazinyl)-5-methylnicotinonitrile] the value was not above 1000 nM; for `Cc1cccnc1N1CCN(c2nc(N3CCC[C@H]3C)nc(-c3ccc(F)cc3)c2F)[C@H](C)C1` [Example 189, 5-fluoro-4-(4-fluorophenyl)-6-[(2R)-2-methyl-4-(3-methylpyridin-2-yl)piperazin-1-yl]-2-[(2R)-2-methylpyrrolidin-1-yl]pyrimidine], not above 1000 nM.
The term Ki denotes the dissociation constant of the complex between target and ligand, obtained from inhibition or displacement. For the compound `Cl.Cl.Cl.Cl.Cl.Cl.N.N.N.N.N.N.N.N.N.N.N.N.N.N.[O-2].[O-2].[Ru+3].[Ru+3].[Ru+4]` [ruthenium red], in assay [2], the Ki was not below 140000 nM.
